In patent US20180140578A1, “METHODS AND COMPOSITIONS FOR THE DIAGNOSIS AND SELECTIVE TREATMENT OF CANCER” (Board of Regents of the University of Texas System, priority 2016, published 2018):

Legend:
DCAF15 and RBM39Δ150 [1] = target: T1, DCAF15 and RBM39Δ150 (Homo sapiens, UniProt Q14498+Q66K64, P272S); assay: Mass spec quantification of indisulam in RBM39 DCAF15 complex; format: binding; settings: DCAF15 and RBM39Δ150 P272S; 10 μM indisulam
T1 construct: Full-length cDNAs encoding CUL4A, CUL4B, DCAF15, and DDB1 were cloned into pLVX IRES Puro; made in house; host or cells: RBM39Δ150: Sf9 (baculovirus); DCAF15-3xFLAG: anti-FLAG beads from HCT-116 or 293T cells stably expressing it
T1 sequence (Q66K64 whole entry, stated change not applied): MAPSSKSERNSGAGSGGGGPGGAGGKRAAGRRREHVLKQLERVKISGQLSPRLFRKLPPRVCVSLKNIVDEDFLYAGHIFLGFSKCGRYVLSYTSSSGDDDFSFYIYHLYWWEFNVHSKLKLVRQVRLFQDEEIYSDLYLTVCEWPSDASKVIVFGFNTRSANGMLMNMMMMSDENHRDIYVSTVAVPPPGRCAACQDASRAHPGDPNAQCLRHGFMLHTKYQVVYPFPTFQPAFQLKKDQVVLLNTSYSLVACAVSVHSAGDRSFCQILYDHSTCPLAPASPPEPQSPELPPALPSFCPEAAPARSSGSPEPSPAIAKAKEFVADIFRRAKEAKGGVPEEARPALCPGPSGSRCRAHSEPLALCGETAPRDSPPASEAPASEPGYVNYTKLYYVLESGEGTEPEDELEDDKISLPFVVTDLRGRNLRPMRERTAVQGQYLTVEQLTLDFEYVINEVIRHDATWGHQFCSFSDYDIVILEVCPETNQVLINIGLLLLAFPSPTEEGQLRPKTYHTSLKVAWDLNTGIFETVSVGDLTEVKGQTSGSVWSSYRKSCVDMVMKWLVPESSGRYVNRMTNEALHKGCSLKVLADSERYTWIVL
T1 sequence (Q14498 151-530 P272S, stated change not applied): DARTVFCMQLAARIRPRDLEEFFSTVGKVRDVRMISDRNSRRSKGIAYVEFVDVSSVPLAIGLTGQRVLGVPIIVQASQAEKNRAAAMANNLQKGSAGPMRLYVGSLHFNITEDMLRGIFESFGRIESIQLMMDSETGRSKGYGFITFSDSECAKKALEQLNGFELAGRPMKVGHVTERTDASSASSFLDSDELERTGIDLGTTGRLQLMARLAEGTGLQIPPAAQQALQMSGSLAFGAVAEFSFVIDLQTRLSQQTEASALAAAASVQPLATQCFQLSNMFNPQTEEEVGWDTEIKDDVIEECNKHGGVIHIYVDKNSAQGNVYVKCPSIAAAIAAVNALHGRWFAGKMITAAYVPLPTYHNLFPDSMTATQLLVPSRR
T1 sequence (Q16531 2-1140 partner, stated change not applied): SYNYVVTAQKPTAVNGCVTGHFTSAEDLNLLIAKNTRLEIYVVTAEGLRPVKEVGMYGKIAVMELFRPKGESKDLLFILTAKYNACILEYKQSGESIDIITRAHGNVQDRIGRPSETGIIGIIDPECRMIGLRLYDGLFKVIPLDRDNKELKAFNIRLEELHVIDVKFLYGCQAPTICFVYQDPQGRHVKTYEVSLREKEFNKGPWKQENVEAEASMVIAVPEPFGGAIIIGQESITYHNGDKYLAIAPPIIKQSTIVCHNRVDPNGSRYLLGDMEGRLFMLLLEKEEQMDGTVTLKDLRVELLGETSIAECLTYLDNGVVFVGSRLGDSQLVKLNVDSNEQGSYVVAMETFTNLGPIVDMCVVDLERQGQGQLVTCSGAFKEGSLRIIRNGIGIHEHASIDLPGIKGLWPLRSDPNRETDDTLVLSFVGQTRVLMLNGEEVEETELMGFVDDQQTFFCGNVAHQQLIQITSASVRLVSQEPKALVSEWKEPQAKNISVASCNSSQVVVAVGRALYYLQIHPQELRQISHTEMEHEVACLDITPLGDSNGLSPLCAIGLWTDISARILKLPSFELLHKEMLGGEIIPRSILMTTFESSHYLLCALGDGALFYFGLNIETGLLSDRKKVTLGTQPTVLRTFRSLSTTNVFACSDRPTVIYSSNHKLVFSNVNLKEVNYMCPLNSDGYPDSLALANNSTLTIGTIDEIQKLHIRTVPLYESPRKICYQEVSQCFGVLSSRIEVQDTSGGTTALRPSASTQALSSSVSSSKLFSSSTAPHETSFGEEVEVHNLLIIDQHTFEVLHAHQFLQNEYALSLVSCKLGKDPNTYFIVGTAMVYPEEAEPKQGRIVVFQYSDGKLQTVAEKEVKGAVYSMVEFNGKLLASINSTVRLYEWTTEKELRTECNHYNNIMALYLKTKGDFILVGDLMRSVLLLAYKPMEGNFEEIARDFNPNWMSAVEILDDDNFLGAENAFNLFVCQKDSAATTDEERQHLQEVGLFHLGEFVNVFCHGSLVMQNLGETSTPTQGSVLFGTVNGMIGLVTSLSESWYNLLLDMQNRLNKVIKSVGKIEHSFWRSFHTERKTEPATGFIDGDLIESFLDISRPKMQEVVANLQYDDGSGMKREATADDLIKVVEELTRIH
Excerpt: (§1) RBM39-3xFLAG was immunopurified from HCT-116 cells expressing RBM39-3xFLAG (endogenous tag) using the cryomill procedure. DCAF15-3xFLAG was purified from 293T cells stably expressing DCAF15-3xFLAG through lentiviral transduction. […] Afterwards, beads were washed twice with 1×PBS, 0.1% NP40 and twice with 1×PBS. […] The tolbutamide internal standard (IS) was detected using the transition 269.1 to 169.9 (negative mode; M-H^−). […] The limit of quantitation (lowest quantifiable point on the standard curve with accuracy within 20% upon back calculation and at least 3-fold above background) for this method was 50 pg/ml.

DCAF15 and RBM39Δ150 [2] = target: T2, DCAF15 and RBM39Δ150 (Homo sapiens, UniProt Q14498+Q66K64); assay: as above; format: binding; settings: DCAF15 and wild type RBM39Δ150; 10 μM indisulam
T2 construct: Full-length cDNAs encoding CUL4A, CUL4B, DCAF15, and DDB1 were cloned into pLVX IRES Puro; made in house; host or cells: RBM39Δ150: Sf9 (baculovirus); DCAF15-3xFLAG: anti-FLAG beads from HCT-116 or 293T cells stably expressing it
T2 sequence (Q66K64 whole entry, stated change not applied): as the sequence (Q66K64 whole entry, stated change not applied) above
T2 sequence (Q14498 151-530, stated change not applied): as the sequence (Q14498 151-530 P272S, stated change not applied) above, with S122P counted along it
T2 sequence (Q16531 2-1140 partner): as the sequence (Q16531 2-1140 partner, stated change not applied) above
Excerpt: as §1

DCAF15 and RBM39Δ150 [3] = assay: as above; format: binding, human
Excerpt: as §1

[4] = target: T3, RBM39 G268V-3xFLAG with CUL4 complex (Homo sapiens, UniProt Q14498+Q66K64, G268V); assay: Co-immunoprecipitation of RBM39 G268V-3xFLAG from treated cells; format: cell-based; settings: in the presence of indisulam
T3 construct: lysate derived from parental cells, RBM39-3xFLAG cells, or RBM39 G268V-3xFLAG cells; endogenous in cells; host or cells: HCT-116 RBM39 G268V-3xFLAG cells (treated cells in A91; lysates in A95)
Method: Anti-Flag M2 antibody (Sigma-Aldrich) was coupled to Dynabeads M-270 epoxy beads (Life Technologies) at the ratio of 10 μg of antibody/mg beads. […] Frozen cells were then pulverized in the a cryomill (Retsch) with one 25 mm steel ball and five cycles of three min at 25 Hz with intermittent cooling in liquid nitrogen. […] The lysates were centrifuged at 8000 g for 5 min at 4° C. 12 mg of conjugated Anti-Flag magnetic beads were mixed with clarified lysates for 5 min at 4° C. on a rotating platform, followed by three washes with IP buffer. Bound proteins were eluted with 1 mg/ml 3xFLAG peptide, followed by SDS-PAGE on a 10% Bis Tris gel. After brief electrophoresis, bands containing all the proteins were cut with clean blades. For western blotting of co-immunoprecipitated proteins, anti-DDA1 (ProteinTech, 14995-1-AP, 1:1000), anti-DDB1 (Abcam, ab109027, 1;10000), anti-CUL4A (Cell Signaling, 2699, 1:1000), anti-CUL4B (ProteinTech, 12916-1-AP, 1:1000) were used.

RBM39-AcGFP = target: T4, RBM39-AcGFP (Homo sapiens, UniProt Q14498+Q66K64); assay: CRISPR inactivation of DDB1, DDA1, DCAF15; RBM39-AcGFP by flow cytometry; format: cell-based; settings: H1155 RBM39-AcGFP cells
T4 construct: Homology directed repair facilitates tagging of endogenous RBM39 by AID, 3xFLAG, AcGFP, or Nanoluciferase; endogenous in cells; host or cells: H1155 RBM39-AcGFP knock-in cells
Method: Two independent guide RNAs targeting DDB1, DDA1, DCAF15 were cloned into PX459. 0.2 million H1155 RBM39-AcGFP cells were transfected with PX459 sgRNA constructs and selected with 2 μg/ml puromycin to enrich for transfected cells. […] Cells were then trypsinized and the expression of RBM39-AGFP was quantified with flow cytometry. H1155 cells transfected with DCAF15 guide RNA were sparsely plated on 10 cm^2 plates and clones were isolated. Genomic DNA sequence flanking the cut site were amplified and sequenced to identify DCAF15−/− clones.

SMILES: NS(=O)(=O)c1ccc(S(=O)(=O)Nc2cccc3c(Cl)c[nH]c23)cc1 [Indisulam, indisulam]
- amount of indisulam in complex (LC-MS) (DCAF15 and RBM39Δ150 [1]): lower levels of indisulam
- amount of indisulam in complex (LC-MS) (DCAF15 and RBM39Δ150 [2]): highest levels of indisulam
- amount of indisulam in complex (LC-MS) (DCAF15 and RBM39Δ150 [3]; DCAF15 and M265L or E271Q variants of RBM39Δ150): no indisulam was detected
- amount of indisulam (LC-MS) (DCAF15 and RBM39Δ150 [3]; either DCAF15 or RBM39 alone): no indisulam was identified
- recruitment of RBM39 G268V to the CUL4 complex [4]: not recruited
- RBM39-AcGFP after indisulam treatment (RBM39-AcGFP): degraded
